Measurements from ChEMBL document CHEMBL4428109, “Structure-activity relationship studies of non-carboxylic acid peroxisome proliferator-activated receptor α/δ (PPARα/δ) dual agonists” (Bioorg Med Chem, 2016).
Activity calls are given as the source filed them.

Experiments:
[1] = target: T1, Retinoic acid receptor RXR-alpha (Homo sapiens) (UniProt P19793); experiment: Agonist activity at RXRalpha (unknown origin) at < 20 uM
T1 sequence (whole entry): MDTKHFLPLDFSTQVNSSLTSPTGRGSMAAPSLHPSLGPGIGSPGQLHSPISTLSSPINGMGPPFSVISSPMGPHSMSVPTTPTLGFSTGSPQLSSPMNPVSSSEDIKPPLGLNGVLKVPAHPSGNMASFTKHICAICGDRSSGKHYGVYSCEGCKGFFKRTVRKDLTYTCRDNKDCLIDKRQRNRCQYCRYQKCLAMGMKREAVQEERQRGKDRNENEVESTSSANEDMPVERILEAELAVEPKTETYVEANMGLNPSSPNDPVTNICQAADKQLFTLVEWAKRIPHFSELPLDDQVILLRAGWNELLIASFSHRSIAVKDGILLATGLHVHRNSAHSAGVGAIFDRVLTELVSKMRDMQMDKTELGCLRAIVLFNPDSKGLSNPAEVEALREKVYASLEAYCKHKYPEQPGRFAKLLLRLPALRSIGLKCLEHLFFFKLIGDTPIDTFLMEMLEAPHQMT

[2] = target: T2, Retinoic acid receptor RXR-beta (Homo sapiens) (UniProt P28702); experiment: Agonist activity at RXRbeta (unknown origin) at < 20 uM
T2 sequence (whole entry): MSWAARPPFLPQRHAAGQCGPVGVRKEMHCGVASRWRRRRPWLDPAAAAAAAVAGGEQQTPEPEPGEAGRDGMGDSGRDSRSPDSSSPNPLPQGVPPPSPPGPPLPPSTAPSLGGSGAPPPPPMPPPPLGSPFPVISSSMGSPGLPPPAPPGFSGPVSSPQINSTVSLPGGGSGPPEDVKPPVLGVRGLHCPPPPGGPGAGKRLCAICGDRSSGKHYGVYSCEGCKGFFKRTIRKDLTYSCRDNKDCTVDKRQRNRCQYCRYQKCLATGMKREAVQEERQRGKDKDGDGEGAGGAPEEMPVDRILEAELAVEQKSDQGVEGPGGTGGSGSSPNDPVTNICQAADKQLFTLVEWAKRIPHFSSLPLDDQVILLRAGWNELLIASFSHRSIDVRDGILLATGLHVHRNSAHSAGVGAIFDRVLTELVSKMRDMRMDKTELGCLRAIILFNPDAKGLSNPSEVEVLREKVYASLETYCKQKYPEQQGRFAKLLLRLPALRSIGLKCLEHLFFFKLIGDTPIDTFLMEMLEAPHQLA

[3] = target: T3, Retinoic acid receptor RXR-gamma (Homo sapiens) (UniProt P48443); experiment: Agonist activity at RXRgamma (unknown origin) at < 20 uM
T3 sequence (whole entry): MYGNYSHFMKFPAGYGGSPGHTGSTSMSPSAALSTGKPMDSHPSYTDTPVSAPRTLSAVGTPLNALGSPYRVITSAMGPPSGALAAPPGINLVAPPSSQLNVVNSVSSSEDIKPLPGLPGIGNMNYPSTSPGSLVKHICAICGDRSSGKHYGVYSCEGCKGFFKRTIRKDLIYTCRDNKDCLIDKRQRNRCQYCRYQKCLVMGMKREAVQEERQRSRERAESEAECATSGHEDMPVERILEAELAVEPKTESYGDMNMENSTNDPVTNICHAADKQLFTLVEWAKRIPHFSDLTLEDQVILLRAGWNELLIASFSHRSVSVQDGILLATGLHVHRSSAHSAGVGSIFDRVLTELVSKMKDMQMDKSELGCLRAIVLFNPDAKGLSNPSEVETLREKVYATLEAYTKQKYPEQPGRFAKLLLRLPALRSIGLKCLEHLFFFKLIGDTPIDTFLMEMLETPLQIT

[4] = target: T4, Oxysterols receptor LXR-alpha (Homo sapiens) (UniProt Q13133); experiment: Agonist activity at LXRalpha (unknown origin) at < 20 uM
T4 sequence (whole entry): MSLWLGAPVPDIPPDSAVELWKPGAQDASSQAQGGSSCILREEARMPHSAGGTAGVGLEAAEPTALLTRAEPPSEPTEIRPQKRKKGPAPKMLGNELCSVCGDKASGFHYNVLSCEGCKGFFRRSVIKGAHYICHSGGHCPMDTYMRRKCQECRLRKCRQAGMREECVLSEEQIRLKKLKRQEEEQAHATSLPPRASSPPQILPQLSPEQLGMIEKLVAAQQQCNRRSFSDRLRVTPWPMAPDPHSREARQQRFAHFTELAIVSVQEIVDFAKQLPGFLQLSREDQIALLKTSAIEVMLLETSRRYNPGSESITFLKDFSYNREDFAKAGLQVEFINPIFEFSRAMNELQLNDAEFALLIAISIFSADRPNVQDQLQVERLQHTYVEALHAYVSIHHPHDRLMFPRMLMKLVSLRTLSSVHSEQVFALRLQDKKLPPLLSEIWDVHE

[5] = target: T5, Oxysterols receptor LXR-beta (Homo sapiens) (UniProt P55055); experiment: Agonist activity at LXRbeta (unknown origin) at < 20 uM
T5 sequence (whole entry): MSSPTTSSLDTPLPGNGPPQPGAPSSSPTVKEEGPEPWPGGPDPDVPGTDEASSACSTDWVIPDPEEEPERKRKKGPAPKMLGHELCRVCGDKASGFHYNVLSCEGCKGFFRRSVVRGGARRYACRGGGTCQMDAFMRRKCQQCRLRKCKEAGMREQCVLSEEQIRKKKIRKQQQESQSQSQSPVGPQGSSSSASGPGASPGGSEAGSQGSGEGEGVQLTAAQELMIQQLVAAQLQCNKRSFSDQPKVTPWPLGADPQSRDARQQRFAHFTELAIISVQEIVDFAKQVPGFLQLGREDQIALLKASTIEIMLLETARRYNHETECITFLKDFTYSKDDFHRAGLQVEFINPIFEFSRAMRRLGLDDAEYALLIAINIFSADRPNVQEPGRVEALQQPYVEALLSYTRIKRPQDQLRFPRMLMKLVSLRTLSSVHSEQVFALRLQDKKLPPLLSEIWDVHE

[6] = target: T6, Bile acid receptor (Homo sapiens) (UniProt Q96RI1); experiment: Agonist activity at FXR (unknown origin) at < 20 uM
T6 sequence (whole entry): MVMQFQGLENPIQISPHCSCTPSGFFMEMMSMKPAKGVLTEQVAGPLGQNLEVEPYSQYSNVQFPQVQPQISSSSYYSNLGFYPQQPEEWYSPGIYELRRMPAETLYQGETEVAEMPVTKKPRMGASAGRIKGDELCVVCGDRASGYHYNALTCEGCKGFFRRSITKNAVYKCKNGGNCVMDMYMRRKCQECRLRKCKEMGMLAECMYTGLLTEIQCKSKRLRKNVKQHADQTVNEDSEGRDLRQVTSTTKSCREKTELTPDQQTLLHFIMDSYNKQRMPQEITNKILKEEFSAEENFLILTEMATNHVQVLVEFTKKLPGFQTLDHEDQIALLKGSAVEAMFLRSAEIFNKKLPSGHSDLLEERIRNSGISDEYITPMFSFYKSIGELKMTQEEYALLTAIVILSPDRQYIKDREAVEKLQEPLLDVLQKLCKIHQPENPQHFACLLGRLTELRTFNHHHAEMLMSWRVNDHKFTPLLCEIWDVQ

Measured: Activity

CC(=O)NC(C)c1nc(-c2ccc(Oc3ccc(O)cc3)cc2)no1 (stereo unspecified)
inactive: [1] | [2] | [3] | [4] | [5] | [6]
